The values below come from patent US9816989B2, “Immunologically active polypeptide” (Institute of Arthritis Research, LLC, priority 2013, dated 2017).

Assay [1] relates to macrophage cell line (THP-1). The assay can be described thus: Flow cytometry binding to macrophage/monocyte cell line with or without LPS. The settings on record: presence or absence of LPS. For orientation: A flow cytometer gives signals particle by particle.
The subject of assay [2] is peripheral blood cells. Briefly: Cytokine production by human peripheral blood cells in culture (MSD panel). Format: cell-based. On the procedure: In order to examine the biological activity of IgX, cytokine production from human peripheral whole blood samples incubated with IgX was measured. Peripheral whole blood samples from three different donors (#66, 67, and 85) were obtained with appropriate informed consent and incubated with concentrations of IgX ranging from 0 to 200 ug/ml.
Protein A purified IgX was prepared from placental sample BC, brought to 0.05 M phosphate, 0.15 M NaCl buffer, pH 7.4, treated with an endotoxin affinity column (ActiClean Etox™ from Sterogene, Carlsbad, Calif.) according to the supplier's instructions, and then sent to IBT Bioservices (Gaithersburg, Md.) for human peripheral blood testing. […] All peripheral blood cells were suspended in RPMI-1640 media. Various concentrations of IgX were incubated with peripheral blood cells from donor D66 for 18 hours, and then the samples were stimulated with 1 ug/ml of PHA, 50 ng/ml of LPS, or 10 ng/ml of IFNγ (200 U/ml) for four hours. Samples of culture supernatant fluids were tested in duplicate for the presence of IL-2, IL-4, IL-6, IL-10, IL-12, and TNFα using a Meso Scale Discovery (MSD, Gaithersburg, Md.) panel.
PeptideX1 and PeptideX2 were incubated with peripheral blood cells from donor D67 as described above and tested in duplicate for IL-6 activity. […]

In assay [3] the test system is E. coli. Briefly: E. coli growth (CFUs) incubated with human peripheral blood leukocytes with and without PeptideX2. Format: cell-based. Conditions: E. coli with WBCs and PeptideX2; 10 hours; FIG. 11. On the procedure:
To test this hypothesis, human peripheral white cells were incubated with E. coli in the presence and absence of PeptideX2.
Human peripheral blood leukocytes (WBCs) were obtained from healthy donors with informed consent. Three test groups were inoculated with E. coli and incubated for 10 hours. The three groups were E. coli with serum alone, E. coli with WBCs, and E. coli with WBCs with PeptideX2. Samples were taken at 0, 2, 4, 6 and 10 hours and plated for colony forming units (CFUs). […] In a separate but similar experiment, nine test groups (E. coli with serum alone, E. coli with WBCs, and E. coli with WBCs with PeptideX2 at each of seven indicated concentrations, see FIG. 12) were incubated over a time course of three hours, with quantification of bacterial CFU performed at times 0, 1.5 and 3 hours (FIG. 12).

With “KSIAYLQMNSLK (Peptide fragment) [PeptideX2]”, the “binding to monocyte cell line” value in assay [1] is given as “without any binding”. Also, the “IL-6 production compared to peptideX1” value in assay [2] (cells from donor #67, FIG. 7) was “significantly greater”. For the same sequence, the IL-6 production entry in assay [2] (cells from donor #85, PeptideX2 0-200 ug/ml, FIG. 9) was “enhanced production”. In assay [3], the “E. coli CFUs” value is recorded as “rapid rise in CFUs”.
